In patent US7473669B2, “Substituted 4,5-dihydro-1,2,4-triazin-6-ones, 1,2,4-triazin-6-ones, and their use as fungicides” (priority 2005, dated 2009):

What was measured:
Type in all cases: in vivo
Pyricularia oryzae = assay: whole plant or invertebrate; conditions: 24 h, read-out: PYRIOR percent control rating
Leptosphaeria nodorum = assay: Glume Blotch of Wheat greenhouse one-day protectant test; conditions: Parastagonospora nodorum, 24 h; wheat plants, one-day protectant test, 200 ppm application rate; read-out: LEPTNO percent control rating
Erysiphe cichoracaerum = assay: Cucumber Powdery Mildew greenhouse one-day protectant test; conditions: 24 h, cucumber plants, one-day protectant test, 200 ppm application rate, read-out: ERYSCI percent control rating
[1] = tested on: Puccinia recondita tritici; assay: Leaf Rust of Wheat greenhouse one-day protectant test; conditions: 24 h, wheat plants, one-day protectant test, 200 ppm application rate, read-out: PUCCRT percent control rating
Phytophthora infestans = assay: whole plant or invertebrate; conditions: in Solanum lycopersicum, 24 h, read-out: PHYTIN percent control rating, tomato plants, one-day protectant test, 200 ppm application rate
Colletotricum lagenarium = assay: Cucumber Anthracnose greenhouse one-day protectant test; conditions: Cucumis sativus, 24 h, cucumber plants, one-day protectant test, 200 ppm application rate; read-out: COLLLA percent control rating

Compound | pest or weed control at 200 ppm (Pyricularia oryzae) | pest or weed control at 200 ppm (Leptosphaeria nodorum) | pest or weed control at 200 ppm (Erysiphe cichoracaerum) | pest or weed control at 200 ppm [1] | pest or weed control at 200 ppm (Phytophthora infestans) | pest or weed control at 200 ppm (Colletotricum lagenarium)
O=C1CNC(c2cccc(Oc3ccnc(Cl)c3)c2)=NN1CC(F)(F)F [Compound 33] | 0 to 49% | 50 to 79% | 0 to 49% | 80 to 100% | 0 to 49% | 0 to 49%
O=C1CNC(c2ccc(-c3cc(Cl)cc(Cl)c3)nc2)=NN1CCF [Compound 34] | 80 to 100% | 80 to 100% | 0 to 49% | 80 to 100% | 50 to 79% | 50 to 79%
O=C1CNC(c2ccc(-c3ccc(C(F)(F)F)cc3)nc2)=NN1CCF [Compound 35] | 80 to 100% | 80 to 100% | 0 to 49% | 80 to 100% | 50 to 79% | 50 to 79%
Cc1cc(C)cc(C2=NN(CC(F)(F)F)C(=O)C(SCc3ccccc3)N2)c1 (stereo not drawn) [Compound 36] | 80 to 100% | 80 to 100% | 0 to 49% | 80 to 100% | 0 to 49% | 80 to 100%
Cc1cc(C)cc(C2=NN(CC(F)(F)F)C(=O)C(SC3CCCCC3)N2)c1 (stereo not drawn) [Compound 37] | 80 to 100% | 80 to 100% | 0 to 49% | 80 to 100% | 0 to 49% | 80 to 100%
Cc1cc(C)cc(C2=NN(CC(F)(F)F)C(=O)C(SCCO)N2)c1 (stereo not drawn) [Compound 38] | 80 to 100% | 80 to 100% | 0 to 49% | 80 to 100% | 0 to 49% | 0 to 49%
Cc1cc(C)cc(C2=NN(CC(F)(F)F)C(=O)C(SCCCCl)N2)c1 (stereo not drawn) [Compound 39] | 80 to 100% | 80 to 100% | 0 to 49% | 80 to 100% | 0 to 49% | 80 to 100%
Cc1cc(C)cc(C2=NN(CC(F)(F)F)C(=O)C(OCc3ccccc3)N2)c1 (stereo not drawn) [Compound 40] | 80 to 100% | 80 to 100% | 0 to 49% | 80 to 100% | 0 to 49% | 80 to 100%
Cc1cc(C)cc(C2=NN(CC(F)(F)F)C(=O)C(OC3CCCCC3)N2)c1 (stereo not drawn) [Compound 41] | 80 to 100% | 80 to 100% | 0 to 49% | 80 to 100% | 0 to 49% | 50 to 79%
Cc1cc(C)cc(C2=NN(CC(F)(F)F)C(=O)C(SCC(=O)O)N2)c1 (stereo not drawn) [Compound 42] | 80 to 100% | 80 to 100% | 0 to 49% | 80 to 100% | 0 to 49% | 80 to 100%
Cc1cc(C2=NN(CC(F)(F)F)C(=O)C(SC3CCCCC3)N2)ccc1Br (stereo not drawn) [Compound 43] | 80 to 100% | 80 to 100% | 0 to 49% | 80 to 100% | 80 to 100% | 80 to 100%
O=C1C(SC2CCCCC2)NC(c2cc(Br)cc(Br)c2)=NN1CC(F)(F)F (stereo not drawn) [Compound 44] | 80 to 100% | 80 to 100% | 0 to 49% | 80 to 100% | 80 to 100% | 80 to 100%
O=C1C(SC2CCCCC2)NC(c2ccc(Oc3ccccc3)c(-c3ccccc3)c2)=NN1CC(F)(F)F (stereo not drawn) [Compound 45] | 80 to 100% | 80 to 100% | 0 to 49% | 50 to 79% | 0 to 49% | 50 to 79%
O=C1C(SC2CCCCC2)NC(c2cccc(/C=C\c3ccccc3)c2)=NN1CC(F)(F)F (stereo not drawn) [Compound 47] | 80 to 100% | 80 to 100% | 80 to 100% | 80 to 100% | 0 to 49% | 80 to 100%
O=C1C(SC2CCCCC2)NC(c2ccc(Br)s2)=NN1CC(F)(F)F (stereo not drawn) [Compound 50] | 80 to 100% | 80 to 100% | 0 to 49% | 80 to 100% | 0 to 49% | 50 to 79%
Cc1ccccc1-c1cccc(C2=NN(CC(F)(F)F)C(=O)C(SC3CCCCC3)N2)c1 (stereo not drawn) [Compound 51] | 80 to 100% | 80 to 100% | 0 to 49% | 80 to 100% | 0 to 49% | 50 to 79%
O=C1C(SC2CCCCC2)NC(c2cccc(-c3ccccc3OC(F)(F)F)c2)=NN1CC(F)(F)F (stereo not drawn) [Compound 52] | 80 to 100% | 80 to 100% | 0 to 49% | 80 to 100% | 0 to 49% | 0 to 49%
COc1ccccc1-c1cccc(C2=NN(CC(F)(F)F)C(=O)C(SC3CCCCC3)N2)c1 (stereo not drawn) [Compound 53] | 80 to 100% | 80 to 100% | 0 to 49% | 80 to 100% | 0 to 49% | 50 to 79%
O=C(c1ccccc1)c1cccc(C2=NN(CC(F)(F)F)C(=O)C(SC3CCCCC3)N2)c1 (stereo not drawn) [Compound 54] | 80 to 100% | 80 to 100% | 0 to 49% | 50 to 79% | 0 to 49% | 50 to 79%
O=C1C(SC2CCCCC2)NC(c2cccc(-c3ccsc3)c2)=NN1CC(F)(F)F (stereo not drawn) [Compound 55] | 80 to 100% | 80 to 100% | 0 to 49% | 50 to 79% | 0 to 49% | 50 to 79%
CON=C(c1ccccc1)c1cccc(C2=NN(CC(F)(F)F)C(=O)C(SC3CCCCC3)N2)c1 (stereo not drawn) [Compound 56] | 80 to 100% | 80 to 100% | 0 to 49% | 50 to 79% | 0 to 49% | 0 to 49%
O=C1C(SC2CCCCC2)NC(c2cccc(C(=NOCc3ccccc3)c3ccccc3)c2)=NN1CC(F)(F)F (stereo not drawn) [Compound 57] | 0 to 49% | 0 to 49% | 0 to 49% | 0 to 49% | 0 to 49% | 0 to 49%
O=C1CNC(c2ccc(N3CCOCC3)cc2)=NN1CC(F)(F)F [Compound 58] | 80 to 100% | 0 to 49% | 50 to 79% | 0 to 49% | 0 to 49% | 0 to 49%
O=C1CNC(c2ccc(Oc3cccnc3)cc2)=NN1CC(F)(F)F [Compound 59] | 50 to 79% | 50 to 79% | 0 to 49% | 80 to 100% | 50 to 79% | 0 to 49%
O=C1CNC(c2csc(-c3ccccc3)c2)=NN1CC(F)(F)F [Compound 60] | 80 to 100% | 80 to 100% | 0 to 49% | 0 to 49% | 0 to 49% | 0 to 49%
CCCCN1N=C(c2cc(-c3ccsc3)cc(-c3ccsc3)c2)NCC1=O [Compound 62] | 0 to 49% | 80 to 100% | 0 to 49% | 0 to 49% | 0 to 49% | 0 to 49%
Cc1cc(C)cc(C2=NN(Cc3c(F)c(F)c(F)c(F)c3F)C(=O)CN2)c1 [Compound 63] | 50 to 79% | 50 to 79% | 0 to 49% | 0 to 49% | 0 to 49% | 0 to 49%
Cc1cc(C)cc(C2=NN(CCOc3ccccc3)C(=O)CN2)c1 [Compound 64] | 80 to 100% | 80 to 100% | 0 to 49% | 80 to 100% | 0 to 49% | 50 to 79%
O=C1CNC(c2cc(Cl)cc(Cl)c2)=NN1Cc1c(F)c(F)c(F)c(F)c1F [Compound 65] | 50 to 79% | 80 to 100% | 0 to 49% | 0 to 49% | 0 to 49% | 80 to 100%
O=C1CNC(c2cc(Cl)cc(Cl)c2)=NN1CCOc1ccccc1 [Compound 66] | 80 to 100% | 80 to 100% | 0 to 49% | 80 to 100% | 0 to 49% | 80 to 100%
